According to ChEMBL document CHEMBL1201862, “PubChem BioAssay data set” (2004):
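Cells were grown in 96-well plates and exposed to each compound for 48 hours at five concentrations; endpoints were interpolated linearly between bracketing concentrations, or set to the highest concentration if not reached. The concentration for 50% growth inhibition is given as GI50.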 Active and inactive are the calls of the source. No stated cut-off is given here; in the data, active = GI50 up to about 1.1 µM and inactive = higher.

Legend:
Assay in all cases: DTP human tumour cell line panel, 48 h
786-0 = tested on: 786-0
A549 = tested on: A549
ACHN = tested on: ACHN
BT-549 = tested on: BT-549
CCRF-CEM = tested on: CCRF-CEM
COLO 205 = tested on: COLO 205
DU-145 = tested on: DU-145
EKVX = tested on: EKVX
HCC 2998 = tested on: HCC 2998
HCT-116 = tested on: HCT-116
HCT-15 = tested on: HCT-15
HL-60 = tested on: HL-60
HOP-62 = tested on: HOP-62
HOP-92 = tested on: HOP-92
HT-29 = tested on: HT-29
Hs-578T = tested on: Hs-578T
IGROV-1 = tested on: IGROV-1
K562 = tested on: K562
KM12 = tested on: KM12
M14 = tested on: M14
MCF7 = tested on: MCF7
MDA-MB-231 = tested on: MDA-MB-231
MDA-MB-435 = tested on: MDA-MB-435
MDA-N = tested on: MDA-N
MOLT-4 = tested on: MOLT-4
Malme-3M = tested on: Malme-3M
NCI-H226 = tested on: NCI-H226
NCI-H23 = tested on: NCI-H23
NCI-H460 = tested on: NCI-H460
NCI-H522 = tested on: NCI-H522
NCI/ADR-RES = tested on: NCI/ADR-RES
OVCAR-3 = tested on: OVCAR-3
OVCAR-4 = tested on: OVCAR-4
OVCAR-5 = tested on: OVCAR-5
OVCAR-8 = tested on: OVCAR-8
PC-3 = tested on: PC-3
RPMI-8226 = tested on: RPMI-8226
RXF 393 = tested on: RXF 393
SF-268 = tested on: SF-268
SF-295 = tested on: SF-295
SF-539 = tested on: SF-539
SK-MEL-28 = tested on: SK-MEL-28
SK-MEL-5 = tested on: SK-MEL-5
SK-OV-3 = tested on: SK-OV-3
SN12C = tested on: SN12C
SNB-19 = tested on: SNB-19
SR = tested on: SR
SW-620 = tested on: SW-620
T47D = tested on: T47D
TK-10 = tested on: TK-10
U-251 = tested on: U-251
UACC-257 = tested on: UACC-257
UACC-62 = tested on: UACC-62
CAKI-1 = tested on: CAKI-1
SK-MEL-2 = tested on: SK-MEL-2
SNB-75 = tested on: SNB-75
UO-31 = tested on: UO-31
A498 = tested on: A498
LOX IMVI = tested on: LOX IMVI

## Cc1cccc2nc(-c3ccccc3)cc(=O)n12
786-0
  GI50: > 100 µM (inactive)
A549
  GI50: > 100 µM (inactive)
ACHN
  GI50: 43.1 µM (inactive)
BT-549
  GI50: 85.5 µM (inactive)
CCRF-CEM
  GI50: > 100 µM (inactive)
COLO 205
  GI50: > 100 µM (inactive)
DU-145
  GI50: > 100 µM (inactive)
EKVX
  GI50: 7.26 µM (inactive)
HCC 2998
  GI50: > 100 µM (inactive)
HCT-116
  GI50: > 100 µM (inactive)
HCT-15
  GI50: 94 µM
HL-60
  GI50: > 100 µM (inactive)
HOP-62
  GI50: > 100 µM (inactive)
HOP-92
  GI50: 61.7 µM (inactive)
HT-29
  GI50: > 100 µM (inactive)
Hs-578T
  GI50: 12.5 µM (inactive)
IGROV-1
  GI50: 49.8 µM (inactive)
K562
  GI50: > 100 µM (inactive)
KM12
  GI50: > 100 µM (inactive)
M14
  GI50: > 100 µM (inactive)
MCF7
  GI50: 50.2 µM (inactive)
MDA-MB-231
  GI50: > 100 µM (inactive)
MDA-MB-435
  GI50: > 10 µM (inactive)
MDA-N
  GI50: > 100 µM (inactive)
MOLT-4
  GI50: 63.5 µM (inactive)
Malme-3M
  GI50: > 100 µM (inactive)
NCI-H226
  GI50: 30.1 µM (inactive)
NCI-H23
  GI50: > 100 µM (inactive)
NCI-H460
  GI50: > 100 µM (inactive)
NCI-H522
  GI50: 58.9 µM (inactive)
NCI/ADR-RES
  GI50: 44.9 µM (inactive)
OVCAR-3
  GI50: > 100 µM (inactive)
OVCAR-4
  GI50: > 100 µM (inactive)
OVCAR-5
  GI50: > 100 µM (inactive)
OVCAR-8
  GI50: 88.3 µM (inactive)
PC-3
  GI50: 43.7 µM (inactive)
RPMI-8226
  GI50: > 100 µM (inactive)
RXF 393
  GI50: 51.8 µM (inactive)
SF-268
  GI50: > 100 µM (inactive)
SF-295
  GI50: > 100 µM (inactive)
SF-539
  GI50: > 100 µM (inactive)
SK-MEL-28
  GI50: > 100 µM (inactive)
SK-MEL-5
  GI50: 38.2 µM (inactive)
SK-OV-3
  GI50: 82.8 µM (inactive)
SN12C
  GI50: 69.2 µM (inactive)
SNB-19
  GI50: > 100 µM (inactive)
SR
  GI50: 87.5 µM (inactive)
SW-620
  GI50: > 100 µM (inactive)
T47D
  GI50: 14 µM (inactive)
TK-10
  GI50: 68.7 µM (inactive)
U-251
  GI50: > 100 µM (inactive)
UACC-257
  GI50: 91.8 µM (inactive)
UACC-62
  GI50: 44.1 µM (inactive)

## O=C(NNC(=S)Nc1ccc(Cl)cc1)c1cc(-c2ccccc2)nc2ccccc12
786-0
  GI50: 4.71 µM (inactive)
A549
  GI50: 7.11 µM (inactive)
ACHN
  GI50: 10 µM (inactive)
BT-549
  GI50: 4.6 µM (inactive)
CAKI-1
  GI50: 4.71 µM (inactive)
CCRF-CEM
  GI50: 1.66 µM (inactive)
COLO 205
  GI50: 4.99 µM (inactive)
DU-145
  GI50: 4.23 µM (inactive)
HCC 2998
  GI50: 3.53 µM (inactive)
HCT-116
  GI50: 3.06 µM (inactive)
HCT-15
  GI50: 3.43 µM
HOP-62
  GI50: 6.12 µM (inactive)
HOP-92
  GI50: 3.59 µM (inactive)
HT-29
  GI50: 8.73 µM (inactive)
Hs-578T
  GI50: 11.7 µM (inactive)
IGROV-1
  GI50: 5.96 µM (inactive)
K562
  GI50: 4.28 µM (inactive)
KM12
  GI50: 4.49 µM (inactive)
M14
  GI50: 4.97 µM (inactive)
MCF7
  GI50: 4.01 µM (inactive)
MDA-MB-231
  GI50: 12.2 µM (inactive)
MDA-MB-435
  GI50: 2.82 µM (inactive)
MDA-N
  GI50: 3.25 µM (inactive)
MOLT-4
  GI50: 4.24 µM (inactive)
Malme-3M
  GI50: 4.6 µM (inactive)
NCI-H226
  GI50: 11.5 µM (inactive)
NCI-H23
  GI50: 4.94 µM (inactive)
NCI-H460
  GI50: 6.22 µM (inactive)
NCI-H522
  GI50: 5.64 µM (inactive)
NCI/ADR-RES
  GI50: 5.27 µM (inactive)
OVCAR-3
  GI50: 2.66 µM (inactive)
OVCAR-4
  GI50: 10.5 µM (inactive)
OVCAR-5
  GI50: 10.3 µM (inactive)
OVCAR-8
  GI50: 8.11 µM (inactive)
PC-3
  GI50: 3.42 µM (inactive)
RPMI-8226
  GI50: 4.08 µM (inactive)
RXF 393
  GI50: 7.93 µM (inactive)
SF-268
  GI50: 11.7 µM (inactive)
SF-295
  GI50: 2.52 µM (inactive)
SF-539
  GI50: 3.69 µM (inactive)
SK-MEL-28
  GI50: 3.31 µM (inactive)
SK-MEL-2
  GI50: 2.56 µM (inactive)
SK-MEL-5
  GI50: 3.73 µM (inactive)
SK-OV-3
  GI50: 7.82 µM (inactive)
SN12C
  GI50: 4.97 µM (inactive)
SNB-19
  GI50: 6.89 µM (inactive)
SNB-75
  GI50: 4.9 µM (inactive)
SR
  GI50: 2.21 µM (inactive)
SW-620
  GI50: 4.91 µM (inactive)
T47D
  GI50: 2.33 µM (inactive)
TK-10
  GI50: 7.19 µM (inactive)
U-251
  GI50: 3.51 µM (inactive)
UACC-257
  GI50: 5.55 µM (inactive)
UACC-62
  GI50: 2.9 µM (inactive)
UO-31
  GI50: 5.28 µM (inactive)

## C=C(C)C(=O)O[C@H]1C/C(CO)=C/CCC(=C)C(OC(C)=O)[C@H]2OC(=O)C(=C)[C@H]12 (some centres undefined)
786-0
  GI50: 3.79 µM (inactive)
A498
  GI50: 18.7 µM (inactive)
A549
  GI50: 19.1 µM (inactive)
ACHN
  GI50: 8.45 µM (inactive)
BT-549
  GI50: 4.41 µM (inactive)
CAKI-1
  GI50: 9.84 µM (inactive)
CCRF-CEM
  GI50: 1.6 µM (inactive)
COLO 205
  GI50: 4.5 µM (inactive)
DU-145
  GI50: 17 µM (inactive)
EKVX
  GI50: > 10 µM (inactive)
HCC 2998
  GI50: 12.5 µM (inactive)
HCT-116
  GI50: 3.78 µM (inactive)
HCT-15
  GI50: 2.3 µM
HL-60
  GI50: 3.09 µM (inactive)
HOP-62
  GI50: 26.2 µM (inactive)
HT-29
  GI50: 5.86 µM (inactive)
Hs-578T
  GI50: 12.2 µM (inactive)
IGROV-1
  GI50: 17.5 µM (inactive)
K562
  GI50: 2.44 µM (inactive)
KM12
  GI50: 14.7 µM (inactive)
LOX IMVI
  GI50: 4.12 µM (inactive)
M14
  GI50: 3.49 µM (inactive)
MCF7
  GI50: 4.39 µM (inactive)
MDA-MB-231
  GI50: 11.1 µM (inactive)
MDA-MB-435
  GI50: 4.61 µM (inactive)
MDA-N
  GI50: 4.49 µM (inactive)
MOLT-4
  GI50: 1.96 µM (inactive)
Malme-3M
  GI50: 3.96 µM (inactive)
NCI-H226
  GI50: 40.8 µM (inactive)
NCI-H23
  GI50: 10.3 µM (inactive)
NCI-H460
  GI50: 17.1 µM (inactive)
NCI-H522
  GI50: 3.45 µM (inactive)
NCI/ADR-RES
  GI50: 4.7 µM (inactive)
OVCAR-3
  GI50: 6.44 µM (inactive)
OVCAR-5
  GI50: 38.5 µM (inactive)
OVCAR-8
  GI50: 16.2 µM (inactive)
PC-3
  GI50: 14.6 µM (inactive)
RPMI-8226
  GI50: 1.82 µM (inactive)
SF-268
  GI50: 2 µM (inactive)
SF-295
  GI50: 23.7 µM (inactive)
SF-539
  GI50: 13.6 µM (inactive)
SK-MEL-28
  GI50: 7.76 µM (inactive)
SK-MEL-2
  GI50: 7.18 µM (inactive)
SK-MEL-5
  GI50: 14.7 µM (inactive)
SK-OV-3
  GI50: 44.9 µM (inactive)
SN12C
  GI50: 13.4 µM (inactive)
SNB-19
  GI50: 28.7 µM (inactive)
SNB-75
  GI50: 2.35 µM (inactive)
SR
  GI50: 3.51 µM (inactive)
SW-620
  GI50: 3.87 µM (inactive)
T47D
  GI50: 6.95 µM (inactive)
TK-10
  GI50: > 10 µM (inactive)
U-251
  GI50: 17.8 µM (inactive)
UACC-257
  GI50: 10 µM (inactive)
UACC-62
  GI50: 10.2 µM (inactive)
UO-31
  GI50: 5.19 µM (inactive)
